Assay results from patent publication US20240246937A1 (MERCK SHARP & DOHME LLC, priority 2021, published 2024).

target: recombinant IL4I1 (Homo sapiens (Human), UniProt Q96RQ9); assay: IL4I1 Enzymatic Assay (Amplex Red/HRP coupled fluorescence detection of H2O2); assay type: biochemical; details: 240 min; recombinant IL4I1, four-hour pre-incubation with compound
Method: Interleukin 4 inducible protein 1 (IL4I1) is an L-amino oxidase that catalyzes the oxidation of aromatic residues (Phe, Trp and Tyr): L-amino acid+H2O+O2→2-oxo acid+NH3+H2O2. Equal molar of H2O2 and the corresponding alpha-ketoacid are produced when IL4I1 and substrate are added. In this assay, the hydrogen peroxide generated by IL4I1 is then detected through a coupled reaction with Amplex® Red (10-acetyl-3,7-dihydroxyphenoxazine) and horseradish peroxidase (HRP) to produce resorufin product that could be detected in the form of fluorescence signals. The assessment of the inhibitory effect of small molecules (EC50) on IL4I1 is measured by the effectiveness of the compounds to inhibit the production of H2O2.
Using this assay, the potency (EC50) of each compound was determined from a ten-point (1:3 serial dilution) titration curve using the following outlined procedure. To each well of a black flat-bottom Greiner (Cat #781076) 384 well-plate, 25 nL of compound (0.1% DMSO in final assay volume of 25 μL) was dispensed, followed by the addition of 12.5 μL of 1× assay buffer (50 mM Hepes 7.0 and 0.005% Tween20 (Sigma, Cat #P8341; low peroxide grade)) containing 2 nM of recombinant IL4I1 (R&D Systems, Cat #5684-AO-020). Plates were placed in an ambient temperature humidified chamber for a four-hour pre-incubation with compound. Subsequently, each reaction was initiated by the addition of 12.5 μL 1× assay buffer containing 2 mM of each aromatic amino acids (Phe/Tyr/Trp), 0.1 mM Amplex Red and 2 U/mL of HRP. The final reaction in each well of 25 μL consisted of 1 nM of IL4I1, 1 mM of each residues (Phe, Tyr and Trp), 0.05 mM Amplex Red and 1 U/mL of HRP. It should be noted that the concentrations of Amplex Red and HRP used here were in excess such that the conversion of H2O2 to resorufin product occurred instantaneously and was non-rate limiting. Reactions were allowed to proceed for 120 minutes followed by fluorescence readout on a Spectramax with the following set parameters: 544 nm excitation/590 nm emission, 570 nm cutoff (EnVision is an alternative reader). Dose-response curves were generated by plotting percent effect (% product conversion; Y-axis) vs. Log10 compound concentrations (X-axis). EC50 values were calculated using a non-linear regression, four-parameters sigmoidal dose-response model and are shown in Potency Table 1.

recombinant IL4I1, sequence (Q96RQ9 22-567): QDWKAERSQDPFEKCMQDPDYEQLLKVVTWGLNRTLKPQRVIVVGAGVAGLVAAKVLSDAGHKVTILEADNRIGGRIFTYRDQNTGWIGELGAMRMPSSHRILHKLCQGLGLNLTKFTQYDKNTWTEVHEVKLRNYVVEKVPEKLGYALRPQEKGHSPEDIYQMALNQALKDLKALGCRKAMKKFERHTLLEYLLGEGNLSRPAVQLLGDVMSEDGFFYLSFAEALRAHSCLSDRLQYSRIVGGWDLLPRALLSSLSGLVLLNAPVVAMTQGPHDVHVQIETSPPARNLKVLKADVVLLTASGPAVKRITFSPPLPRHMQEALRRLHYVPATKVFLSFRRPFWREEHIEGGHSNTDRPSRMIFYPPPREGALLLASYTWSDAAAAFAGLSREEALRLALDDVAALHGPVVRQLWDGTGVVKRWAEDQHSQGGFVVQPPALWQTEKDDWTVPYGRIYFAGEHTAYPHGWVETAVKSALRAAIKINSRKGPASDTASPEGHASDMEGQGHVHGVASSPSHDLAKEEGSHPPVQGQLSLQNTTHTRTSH

| SMILES | EC50 |
| --- | --- |
| O=C1C(=O)N(C2CCCC2)CCN1Cc1ccc(-c2cnco2)nc1 [Example 18, 1-cyclopentyl-4-((6-(oxazol-5-yl)pyridin-3-yl)methyl)piperazine-2,3-dione] | 41 nM |
| O=C1C(=O)N(C2CCCC2)CCN1Cc1ccc(-c2cncs2)cc1F [Example 19, 1-cyclopentyl-4-(2-fluoro-4-(thiazol-5-yl)benzyl)piperazine-2,3-dione] | 7 nM |
| O=C1C(=O)N(C2CCC2)CCN1Cc1ccc(-c2cccc(F)c2)nn1 [Example 20, 1-cyclobutyl-4-((6-(3-fluorophenyl)pyridazin-3-yl)methyl)piperazine-2,3-dione] | 5 nM |
| O=C1C(=O)N(C2CCC2)CCN1Cc1ccc(-c2cccc(F)c2F)nn1 [Example 21, 1-cyclobutyl-4-((6-(2,3-difluorophenyl)pyridazin-3-yl)methyl)piperazine-2,3-dione] | 14 nM |
| O=C1C(=O)N(C2CCC2)CCN1Cc1ccc(-c2cc(F)cc(F)c2)nn1 [Example 22, 1-cyclobutyl-4-((6-(3,5-difluorophenyl)pyridazin-3-yl)methyl)piperazine-2,3-dione] | 22 nM |
| O=C1C(=O)N(C2CCCC2)CCN1Cc1ccc(-c2cn[nH]c2)cc1F [Example 23, 1-cyclopentyl-4-(2-fluoro-4-(1H-pyrazol-4-yl)benzyl)piperazine-2,3-dione] | 21 nM |
| O=C1C(=O)N(C2CCCC2)CCN1Cc1ccc(-c2cn[nH]c2)nc1 [Example 24, 1-((6-(1H-pyrazol-4-yl)pyridin-3-yl)methyl)-4-cyclopentylpiperazine-2,3-dione] | 30 nM |
| O=C1C(=O)N(C2CCC2)CCN1Cc1ccc(-c2cn[nH]c2)nn1 [Example 25, 1-((6-(1H-pyrazol-4-yl)pyridazin-3-yl)methyl)-4-cyclobutylpiperazine-2,3-dione] | 21 nM |
| O=C1C(=O)N(C2CCC2)CCN1Cc1ccc(-c2ccccc2)cn1 [Example 26, 1-cyclobutyl-4-((5-phenylpyridin-2-yl)methyl)piperazine-2,3-dione] | 6 nM |
| O=C1C(=O)N(C2CCC2)CCN1Cc1nnc(-c2cccc(F)c2)s1 [Example 27, 1-cyclobutyl-4-((5-(3-fluorophenyl)-1,3,4-thiadiazol-2-yl)methyl)piperazine-2,3-dione] | 5 nM |
| O=c1c(=O)n(C2CCC2)ccn1Cc1nnc(-c2cccc(F)c2)s1 [Example 28, 1-cyclobutyl-4-((5-(3-fluorophenyl)-1,3,4-thiadiazol-2-yl)methyl)-1,4-dihydropyrazine-2,3-dione] | 8 nM |
| O=C1C(=O)N(C2CCC2)CCN1Cc1nnc(-c2ccc(F)cc2)s1 [Example 29, 1-cyclobutyl-4-((5-(4-fluorophenyl)-1,3,4-thiadiazol-2-yl)methyl)piperazine-2,3-dione] | 9 nM |
| O=c1c(=O)n(C2CCC2)ccn1Cc1nnc(-c2ccc(F)cc2)s1 [Example 30, 1-cyclobutyl-4-((5-(4-fluorophenyl)-1,3,4-thiadiazol-2-yl)methyl)-1,4-dihydropyrazine-2,3-dione] | 8 nM |
| O=C1C(=O)N(C23CC(C2)C3)CCN1Cc1nnc(-c2ccccc2F)s1 [Example 31, 1-(bicyclo[1.1.1]pentan-1-yl)-4-((5-(2-fluorophenyl)-1,3,4-thiadiazol-2-yl)methyl)piperazine-2,3-dione] | 6 nM |
| O=C1C(=O)N(C23CC(C2)C3)CCN1Cc1nnc(-c2ccc(F)cc2)s1 [Example 32, 1-(bicyclo[1.1.1]pentan-1-yl)-4-((5-(4-fluorophenyl)-1,3,4-thiadiazol-2-yl)methyl)piperazine-2,3-dione] | 5 nM |
| O=C1C(=O)N(C2CCC2)CCN1Cc1nnc(-c2ccccc2F)s1 [Example 33, 1-cyclobutyl-4-((5-(2-fluorophenyl)-1,3,4-thiadiazol-2-yl)methyl)piperazine-2,3-dione] | 8 nM |
| O=c1c(=O)n(C2CCC2)ccn1Cc1nnc(-c2ccccc2F)s1 [Example 34, 1-cyclobutyl-4-((5-(2-fluorophenyl)-1,3,4-thiadiazol-2-yl)methyl)-1,4-dihydropyrazine-2,3-dione] | 34 nM |

| SMILES | EC50 |
| --- | --- |
| O=c1c(=O)n(C2CCCC2)ccn1Cc1nnc(-c2ccc(F)cc2)s1 [Example 35, 1-cyclopentyl-4-((5-(4-fluorophenyl)-1,3,4-thiadiazol-2-yl)methyl)-1,4-dihydropyrazine-2,3-dione] | 3 nM |
| O=c1c(=O)n(C23CC(C2)C3)ccn1Cc1nnc(-c2ccc(F)cc2)s1 [Example 36, 1-(bicyclo[1.1.1]pentan-1-yl)-4-((5-(4-fluorophenyl)-1,3,4-thiadiazol-2-yl)methyl)-1,4-dihydropyrazine-2,3-dione] | 6 nM |
| O=C1C(=O)N(C2CCCC2)CCN1Cc1ccc(-c2cccnc2)nn1 [Example 37, 1-cyclopentyl-4-((6-(pyridin-3-yl)pyridazin-3-yl)methyl)piperazine-2,3-dione] | 18 nM |
| O=C1C(=O)N(C23CC(C2)C3)CCN1Cc1ccc(-c2ccccc2)nn1 [Example 38, 1-(bicyclo[1.1.1]pentan-1-yl)-4-((6-phenylpyridazin-3-yl)methyl)piperazine-2,3-dione] | 23 nM |
| O=c1c(=O)n([C@H]2C[C@H]3C[C@H]3C2)ccn1Cc1nnc(-c2ccccc2)s1 [Example 39, 1-((cis)-bicyclo[3.1.0]hexan-3-yl)-4-((5-phenyl-1,3,4-thiadiazol-2-yl)methyl)-1,4-dihydropyrazine-2,3-dione] | 3 nM |
| O=C1C(=O)N(C2CC3CC3C2)CCN1Cc1nnc(-c2ccc(F)cc2)s1 (stereo not drawn) [Example 40, 1-((cis)-bicyclo[3.1.0]hexan-3-yl)-4-((5-(4-fluorophenyl)-1,3,4-thiadiazol-2-yl)methyl)piperazine-2,3-dione] | 4 nM |
| O=c1c(=O)n([C@H]2C[C@H]3C[C@H]3C2)ccn1Cc1nnc(-c2ccc(F)cc2)s1 [Example 41, 1-((cis)-bicyclo[3.1.0]hexan-3-yl)-4-((5-(4-fluorophenyl)-1,3,4-thiadiazol-2-yl)methyl)-1,4-dihydropyrazine-2,3-dione] | 2 nM |
| O=C1C(=O)N([C@H]2C[C@H]3C[C@H]3C2)CCN1Cc1nnc(-c2cccc(F)c2)s1 [Example 42, 1-((cis)-bicyclo[3.1.0]hexan-3-yl)-4-((5-(3-fluorophenyl)-1,3,4-thiadiazol-2-yl)methyl)piperazine-2,3-dione] | 5 nM |
| O=c1c(=O)n([C@H]2C[C@H]3C[C@H]3C2)ccn1Cc1nnc(-c2cccc(F)c2)s1 [Example 43, 1-((cis)-bicyclo[3.1.0]hexan-3-yl)-4-((5-(3-fluorophenyl)-1,3,4-thiadiazol-2-yl)methyl)-1,4-dihydropyrazine-2,3-dione] | 3 nM |
| O=C1C(=O)N([C@H]2C[C@H]3C[C@H]3C2)CCN1Cc1nnc(-c2ccccc2F)s1 [Example 44, 1-((cis)-bicyclo[3.1.0]hexan-3-yl)-4-((5-(2-fluorophenyl)-1,3,4-thiadiazol-2-yl)methyl)piperazine-2,3-dione] | 7 nM |
| O=c1c(=O)n([C@H]2C[C@H]3C[C@H]3C2)ccn1Cc1nnc(-c2ccccc2F)s1 [Example 45, 1-((cis)-bicyclo[3.1.0]hexan-3-yl)-4-((5-(2-fluorophenyl)-1,3,4-thiadiazol-2-yl)methyl)-1,4-dihydropyrazine-2,3-dione] | 5 nM |
| O=C1C(=O)N(C2CCCC2)CCN1Cc1cnc(-c2ccccc2F)cn1 [Example 46, 1-cyclopentyl-4-((5-(2-fluorophenyl)pyrazin-2-yl)methyl)piperazine-2,3-dione] | 13 nM |
| O=c1c(=O)n([C@H]2C[C@H](c3ccccc3)C2)ccn1Cc1nnc(-c2ccccc2)s1 [Example 47, 1-((5-phenyl-1,3,4-thiadiazol-2-yl)methyl)-4-((trans)-3-phenylcyclobutyl)-1,4-dihydropyrazine-2,3-dione] | 3 nM |
| O=c1c(=O)n([C@H]2C[C@@H](c3ccccc3)C2)ccn1Cc1nnc(-c2ccccc2)s1 [Example 48, 1-((5-phenyl-1,3,4-thiadiazol-2-yl)methyl)-4-((cis)-3-phenylcyclobutyl)-1,4-dihydropyrazine-2,3-dione] | 2 nM |
| O=c1c(=O)n(C2CCC2)ccn1Cc1ccc(-c2ccccc2F)nn1 [Example 49, 1-cyclobutyl-4-((6-(2-fluorophenyl)pyridazin-3-yl)methyl)-1,4-dihydropyrazine-2,3-dione] | 3 nM |
| O=c1c(=O)n([C@H]2C[C@H]3C[C@H]3C2)ccn1Cc1ccc(-c2ccccc2F)nn1 [Example 50, 1-((cis)-bicyclo[3.1.0]hexan-3-yl)-4-((6-(2-fluorophenyl)pyridazin-3-yl)methyl)-1,4-dihydropyrazine-2,3-dione] | 4 nM |
